According to paper PMC10611581, “Directed evolution unlocks oxygen reactivity for a nicotine-degrading flavoenzyme” (Nature Chemical Biology, 2023):

T1: NicA2 (nicotine oxidoreductase) (Pseudomonas putida, UniProt F8G0P2)
T1 construct: expressed in E. coli BL21 (DE3) from pET28a-His-SUMO-nicA2, His-SUMO tag cleaved by ULP-1
T1 sequence (F8G0P2 39-482 limits assumed): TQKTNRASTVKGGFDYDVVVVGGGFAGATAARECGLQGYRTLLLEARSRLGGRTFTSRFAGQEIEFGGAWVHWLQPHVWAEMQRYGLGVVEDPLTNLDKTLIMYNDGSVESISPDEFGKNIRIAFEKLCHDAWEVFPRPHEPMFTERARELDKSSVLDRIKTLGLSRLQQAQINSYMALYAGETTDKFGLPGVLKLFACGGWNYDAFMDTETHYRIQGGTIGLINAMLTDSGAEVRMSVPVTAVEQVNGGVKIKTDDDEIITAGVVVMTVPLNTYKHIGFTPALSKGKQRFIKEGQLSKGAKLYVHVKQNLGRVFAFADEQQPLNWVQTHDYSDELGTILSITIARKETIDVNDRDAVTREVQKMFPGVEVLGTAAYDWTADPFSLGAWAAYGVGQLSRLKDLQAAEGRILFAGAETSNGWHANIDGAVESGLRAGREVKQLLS

B1: nicotine oxidoreductase (NicA2), wild type (enzyme, Pseudomonas putida S16, UniProt F8G0P2 39-482, looked up)
chain: T1 sequence (F8G0P2 39-482 limits assumed)
notes: nicotine oxidoreductase NicA2 of Pseudomonas putida S16; crystallised with N-methylmyosmine (NMM); also called wild-type NicA2; WT; source: E. coli BL21 (DE3), purified (HisTrap, ULP-1 cleavage, HiTrap Q, Superdex 200)

Key:
[1] = molecular target: T1, NicA2 (nicotine oxidoreductase); assay: bound flavin absorbance at […] nm; ThermoFAD; type: binding; conditions: co-purified bound cofactor
[2] = molecular target: the molecule itself; assay: crystal structure; hanging-drop vapor diffusion at 4 °C; NicA2 v321 ligand-free and with 20 mM NMM (sodium citrate pH 5.0, 18% PEG 6000), wild type with 2.3 mM NMM (0.2 M ammonium citrate pH 7.0, 20% PEG 3350); two molecules in the asymmetric unit

Molecule	bound flavin absorbance at 450 nm; ThermoFAD [1]	stoichiometry N [2]
Cc1cc2nc3c(=O)[nH]c(=O)nc-3n(C[C@H](O)[C@H](O)[C@H](O)COP(=O)(O)OP(=O)(O)OC[C@H]3O[C@@H](n4cnc5c(N)ncnc54)[C@H](O)[C@@H]3O)c2cc1C [flavin adenine dinucleotide]	determined using the absorbance of bound FAD cofactor	–
B1	–	2
